Laboratory results from the OligoGym collection.
HELM strings list units from the 5' end as sugar, base in round brackets, then linkage (d deoxyribose, r ribose, m 2'-O-methyl, p phosphodiester). Strings are as the collection lists them; they lack the last nucleoside at the 3' end of the tested compound. [moe] = 2'-O-(2-methoxyethyl) (MOE); [sp] = phosphorothioate linkage; [m5C] = 5-methylcytosine

These substances were tested against GFAP (assay: mouse, dose not given). Conditions: ASO.

Question: “RNA1{[moe](A)[sp].[moe](G)p.[moe](G)p.[moe]([m5C])p.[moe](T)[sp].d(T)[sp].d(T)[sp].d(T)[sp].d(G)[sp].d(A)[sp].d(G)[sp].d(A)[sp].d(T)[sp].d(A)[sp].d(T)[sp].[moe]([m5C])p.[moe](T)p.[moe](T)[sp].[moe](G)}$$$$ (last 3' nucleoside missing)” was tested. Which 3 h FOB score did it give?
Answer: The 3 h FOB score was 6 score 0-7.

Question: “RNA1{[moe](G)[sp].[moe]([m5C])p.[moe]([m5C])p.[moe](A)p.[moe](A)[sp].d(A)[sp].d(T)[sp].d([m5C])[sp].d([m5C])[sp].d([m5C])[sp].d([m5C])[sp].d(T)[sp].d([m5C])[sp].d(T)[sp].d(T)[sp].[moe]([m5C])p.[moe]([m5C])p.[moe]([m5C])[sp].[moe](A)}$$$$ (last 3' nucleoside missing)” was tested. Which 3 h FOB score did it give?
Answer: Its 3 h FOB score is 0 score 0-7.

Question: Which 3 h FOB score does the source give for “RNA1{[moe](A)[sp].[moe](T)p.[moe](T)p.[moe]([m5C])p.[moe](A)[sp].d([m5C])[sp].d(T)[sp].d(A)[sp].d(A)[sp].d(T)[sp].d(A)[sp].d(T)[sp].d(T)[sp].[moe](T)p.[moe](A)p.[moe](A)[sp].[moe]([m5C])}$$$$ (last 3' nucleoside missing)” here?
Answer: The 3 h FOB score was 0 score 0-7.

Question: How did the 3 h FOB score turn out when “RNA1{[moe](T)[sp].[moe](G)p.[moe](G)p.[moe]([m5C])p.[moe](A)p.[moe](G)p.d(T)[sp].d(A)[sp].d(T)[sp].d(T)[sp].d(A)[sp].d([m5C])[sp].d([m5C])[sp].d(T)[sp].d([m5C])[sp].d(T)[sp].[moe](A)p.[moe]([m5C])[sp].[moe](T)}$$$$ (last 3' nucleoside missing)” was run?
Answer: The 3 h FOB score was 0 score 0-7.

Question: How did the 3 h FOB score turn out when “RNA1{[moe]([m5C])[sp].[moe](A)p.[moe](T)p.[moe](T)p.d(T)[sp].d(G)[sp].d(T)[sp].d([m5C])[sp].d(T)[sp].d(T)[sp].d(T)[sp].d(A)[sp].d(T)[sp].d(T)[sp].[moe](T)p.[moe](T)p.[moe](T)p.[moe]([m5C])[sp].[moe]([m5C])}$$$$ (last 3' nucleoside missing)” was run?
Answer: The 3 h FOB score was 0 score 0-7.

Question: Which 3 h FOB score does the source give for “RNA1{[moe]([m5C])[sp].[moe](A)p.[moe]([m5C])p.[moe](G)p.[moe](T)p.[moe]([m5C])p.d(A)[sp].d([m5C])[sp].d(A)[sp].d(T)[sp].d(T)[sp].d([m5C])[sp].d(A)[sp].d([m5C])[sp].d(T)[sp].d(A)[sp].[moe](A)p.[moe](T)[sp].[moe](A)}$$$$ (last 3' nucleoside missing)” here?
Answer: The 3 h FOB score was 0 score 0-7.

Question: “RNA1{[moe](T)[sp].[moe](G)p.[moe]([m5C])p.[moe]([m5C])p.[moe](A)[sp].d(T)[sp].d(T)[sp].d(T)[sp].d(A)[sp].d(T)[sp].d([m5C])[sp].d(T)[sp].d(G)[sp].[moe](T)p.[moe](G)p.[moe]([m5C])[sp].[moe](T)}$$$$ (last 3' nucleoside missing)” was tested. Which 3 h FOB score did it give?
Answer: Its 3 h FOB score is 3 score 0-7.

Question: How did the 3 h FOB score turn out when “RNA1{[moe]([m5C])[sp].[moe]([m5C])p.[moe](A)p.[moe](G)p.[moe](T)[sp].d(G)[sp].d(T)[sp].d([m5C])[sp].d(T)[sp].d(T)[sp].d([m5C])[sp].d(A)[sp].d([m5C])[sp].d(T)[sp].d(T)[sp].[moe](T)p.[moe](G)p.[moe]([m5C])[sp].[moe](T)}$$$$ (last 3' nucleoside missing)” was run?
Answer: Its 3 h FOB score is 0 score 0-7.

Question: For “RNA1{[moe](A)[sp].[moe]([m5C])p.[moe](T)p.[moe](A)p.[moe](G)p.[moe](T)p.d([m5C])[sp].d(A)[sp].d(G)[sp].d([m5C])[sp].d([m5C])[sp].d(T)[sp].d(G)[sp].d(G)[sp].d(T)[sp].d(T)[sp].[moe](A)p.[moe](G)[sp].[moe]([m5C])}$$$$ (last 3' nucleoside missing)”, which 3 h FOB score is on record?
Answer: The 3 h FOB score was 4 score 0-7.

Question: For “RNA1{[moe]([m5C])[sp].[moe](T)p.[moe](T)p.[moe](G)p.[moe](T)p.d(G)[sp].d(A)[sp].d(T)[sp].d(T)[sp].d(T)[sp].d(T)[sp].d([m5C])[sp].d([m5C])[sp].d([m5C])[sp].d([m5C])[sp].[moe](G)p.[moe](T)p.[moe]([m5C])[sp].[moe](T)}$$$$ (last 3' nucleoside missing)”, which 3 h FOB score is on record?
Answer: The 3 h FOB score was 3 score 0-7.
